Data from patent publication US20170291890A1 (Epizyme, Inc., priority 2014, published 2017).

Target: T1, KDM5A (Homo sapiens, UniProt P29375)
T1 construct: C-terminal FLAG-tagged KDM5A^1-1090 was purchased from BPS Biosciences; FLAG (C); purchased BPS Biosciences
T1 sequence (P29375 1-1090): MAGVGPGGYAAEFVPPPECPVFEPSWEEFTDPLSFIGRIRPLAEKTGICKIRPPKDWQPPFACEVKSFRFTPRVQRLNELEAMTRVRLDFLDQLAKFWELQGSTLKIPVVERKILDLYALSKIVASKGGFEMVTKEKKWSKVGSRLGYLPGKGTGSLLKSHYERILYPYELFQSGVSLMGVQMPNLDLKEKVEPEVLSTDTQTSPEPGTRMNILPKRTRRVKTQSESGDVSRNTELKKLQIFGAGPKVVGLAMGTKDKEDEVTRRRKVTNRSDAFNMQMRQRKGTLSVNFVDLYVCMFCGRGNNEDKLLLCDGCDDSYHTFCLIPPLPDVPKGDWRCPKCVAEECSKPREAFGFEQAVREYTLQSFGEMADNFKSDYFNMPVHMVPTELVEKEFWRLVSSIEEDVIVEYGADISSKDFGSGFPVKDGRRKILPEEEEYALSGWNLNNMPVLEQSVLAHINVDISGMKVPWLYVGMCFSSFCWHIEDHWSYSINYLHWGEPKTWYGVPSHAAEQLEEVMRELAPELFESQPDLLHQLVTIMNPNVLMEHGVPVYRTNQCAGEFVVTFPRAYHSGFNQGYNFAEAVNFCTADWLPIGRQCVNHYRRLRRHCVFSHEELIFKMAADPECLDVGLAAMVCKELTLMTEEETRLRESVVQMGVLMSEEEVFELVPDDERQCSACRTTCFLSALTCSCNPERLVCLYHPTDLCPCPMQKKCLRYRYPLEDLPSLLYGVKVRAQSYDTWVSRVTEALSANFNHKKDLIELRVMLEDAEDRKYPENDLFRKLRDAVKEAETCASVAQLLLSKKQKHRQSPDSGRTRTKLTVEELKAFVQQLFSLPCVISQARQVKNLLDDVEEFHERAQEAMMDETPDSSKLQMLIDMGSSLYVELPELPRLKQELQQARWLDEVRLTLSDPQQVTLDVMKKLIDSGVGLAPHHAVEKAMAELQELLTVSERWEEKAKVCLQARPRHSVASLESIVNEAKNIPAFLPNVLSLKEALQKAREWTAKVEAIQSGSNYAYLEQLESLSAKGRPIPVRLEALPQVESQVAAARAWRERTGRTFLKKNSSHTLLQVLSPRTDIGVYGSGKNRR
Assay: KDM5A Assay (SAMDI mass spectrometry demethylase assay)
Assay type: biochemical
Settings: C-terminal FLAG-tagged KDM5A 1-1090; class symbols; read-out: 5A IC50
Procedure: C-terminal FLAG-tagged KDM5A^1-1090 was purchased from BPS Biosciences. Peptides were synthesized by BioPeptide and all other reagents were purchased from Sigma-Aldrich at the highest level of purity possible. Assays were performed in a 50 μL volume in 384-well V-bottom polypropylene microplates (Greiner) at 25° C. Optimized 1× assay buffer was 50 mM HEPES (pH=8.0), 100 μM sodium ascorbate, 20 mM NaCl, 10 μM ammonium iron sulfate, 1 mM tris(2-carboxyethyl)phosphine (TCEP), 0.002% Tween-20, and 0.005% BSG. For compound screening, 35 μL of […] (final concentration, f.c.=20 nM) was added using a Multidrop Combi and preincubated with 1 μL of test compound (f.c.=10 μM) for 30 minutes and subsequently 15 μL of peptide with the following sequence NH2-ART[Kme-3]QTARKSTGGKA[K-Ahx-Biot]-amide (f.c.=250 nM) and 2-oxoglutarate (f.c.=15 μM) was added by Multidrop Combi to begin the reaction. Reactions proceeded for 150 minutes and were stopped by the addition of 5 μL of formic acid (f.c.=0.5%) using a Multidrop Combi and then analyzed by SAMDI Tech Inc.
SAMDI Tech analyzed all reactions using self-assembled monoloayer desorption/ionization technology as previously described (Gerard-Levin Z A, Scholle M D, Eisenberg A H, et al.: High-throughput screening of small molecule libraries using SAMDI mass spectrometry. ACS Comb Sci 2011; 13:347-350). Briefly, a 2 μL sample of the stopped demethylase reactions were transferred to a SAMDI array coated with 384 biotin-neutravidin spots using a 384-channel pipet station. The SAMDI arrays were incubated for 1 h in a humidified chamber, followed by washing of the surface with deionized ultra-filtered water (DIUF) and drying under nitrogen. A matrix of 30 mg/ml 2′,4′,6′-Trihydroxyacetophenone monohydrate (THAP) in acetone was applied using a TPP Mosquito 1.2 μL tip by dispensing 50 nL on each of the 384 spots on the array. SAMDI-MS was run using acquisition method ReflectorPositiveUTX. The % conversion of substrate to product was calculated using the AUC of the substrate and product peptide peaks.
An IC50 value was determined by contacting various concentrations of a test compound with one of the KDM4A, KDM4C or KDMSC enzyme constructs and plotting a dose-response curve which associates the amount of inhibition of the enzyme relative to the concentration of the test compound. From the curve, the IC50 value (which represents the concentration of the test compound necessary to inhibit maximal enzymatic activity by 50%) was determined. Additionally, the slope of the linear range of the plotted curve, which indicates the speed with which the curve rises between the minimum and maximum, was calculated.

IC50	Structure (SMILES)
100 to 1000 nM	O=C(O)c1ccncc1Nc1nn(CCC(F)(F)F)cc1-c1ccncc1 [Compound 74, 3-((4-(pyridin-4-yl)-1-(3,3,3-trifluoropropyl)-1H-pyrazol-3-yl)amino)isonicotinic acid]
100 to 1000 nM	Cc1nn(C2CCN(C(C)C)CC2)cc1Nc1cnccc1C(=O)O [Compound 102, 3-((1-(1-isopropylpiperidin-4-yl)-3-methyl-1H-pyrazol-4-yl)amino)isonicotinic acid]
1000 to 10000 nM	CN(C)CCn1ncc(-c2ccccc2)c1Nc1cnccc1C(=O)O [Compound 65, 3-((1-(2-(dimethylamino)ethyl)-4-phenyl-1H-pyrazol-5-yl)amino)isonicotinic acid]
1 to 100 nM	Cn1nc(-c2cccc(Cl)c2)cc1Nc1cnccc1C(=O)O [Compound 25, 3-((3-(3-chlorophenyl)-1-methyl-1H-pyrazol-5-yl)amino) isonicotinic acid]
1 to 100 nM	O=C(O)c1ccncc1Nc1nn(CCC(F)(F)F)cc1-c1ccccc1 [Compound 73, 3-((4-phenyl-1-(3,3,3-trifluoropropyl)-1H-pyrazol-3-yl)amino) isonicotinic acid]
1000 to 10000 nM	Cc1cn(-c2ccccc2)c(Nc2cnccc2C(=O)O)n1 [Compound 2]
100 to 1000 nM	Cc1nn(C2CCN(C(=O)c3ccccc3)CC2)cc1Nc1cnccc1C(=O)O [Compound 97, 3-(1-(1-benzoylpiperidin-4-yl)-3-methyl-1H-pyrazol-4-ylamino) isonicotinic acid]
1000 to 10000 nM	NCCn1nc(-c2ccccc2)cc1Nc1cnccc1C(=O)O [Compound 26]
1 to 100 nM	Cc1cn(-c2ccccc2)nc1Nc1cnccc1C(=O)O [Compound 62, 3-((4-methyl-1-phenyl-1H-pyrazol-3-yl)amino) isonicotinic acid]

The remaining lines, values behind:

Structure (SMILES)	IC50
Cc1c(Nc2cnccc2C(=O)O)cnn1Cc1ccccc1 [Compound 33, 3-((1-benzyl-5-methyl-1H-pyrazol-4-yl)amino)isonicotinic acid]	100 to 1000 nM
Cc1cc(Nc2cnccc2C(=O)O)nn1-c1ccccc1 [Compound 60, 3-((5-methyl-1-phenyl-1H-pyrazol-3-yl)amino)isonicotinic acid]	1000 to 10000 nM
CN1CCN(CCn2cc(-c3ccccc3)c(Nc3cnccc3C(=O)O)n2)CC1 [Compound 34, 3-((1-(2-(4-Methylpiperazin-1-yl)ethyl)-4-phenyl-1H-pyrazol-3-yl)amino)isonicotinic acid]	10000 to 100000 nM
Cn1cc(-c2cccc(F)c2)c(Nc2cnccc2C(=O)O)n1 [Compound 9, 3-((4-(3-Fluorophenyl)-1-methyl-1H-pyrazol-3-yl)amino) isonicotinic acid]	100 to 1000 nM
Cc1c(Nc2cnccc2C(=O)O)cnn1[C@H]1CC[C@@H](N)CC1 [Compound 79, 3-((1-((cis)-4-aminocyclohexyl)-5-methyl-1H-pyrazol-4-yl)amino)isonicotinic acid]	1000 to 10000 nM
Cn1ncc(-c2ccc(F)cc2)c1Nc1cnccc1C(=O)O [Compound 8, 3-((4-(4-fluorophenyl)-1-methyl-1H-pyrazol-5-yl)amino) isonicotinic acid]	10000 to 100000 nM
COC(=O)c1ccncc1Nc1cn(C2CCN(C(C)C)CC2)nc1C [Compound 101, methyl 3-((1-(1-isopropylpiperidin-4-yl)-3-methyl-1H-pyrazol-4-yl)amino)isonicotinate]	10000 to 100000 nM
N[C@H]1CC[C@@H](n2nc(-c3ccccc3)cc2Nc2cnccc2C(=O)O)CC1 [Compound 37, 3-((1-((cis)-4-aminocyclohexyl)-3-phenyl-1H-pyrazol-5-yl)amino)isonicotinic acid]	1000 to 10000 nM
Cc1nn(C2CCCNCC2)cc1Nc1cnccc1C(=O)O (single isomer, unassigned) [Compound 114]	100 to 1000 nM
Cc1nn(C2CCCN(C)CC2)cc1Nc1cnccc1C(=O)O (stereo not shown) [Compound 111, 3-(3-methyl-1-(1-methylazepan-4-yl)-1H-pyrazol-4-ylamino) isonicotinic acid]	10000 to 100000 nM
